# Data published in patent publication US11702635B2, “Hematopoietic stem cell expansion method” (PLASTICELL LIMITED, priority 2017, dated 2023).
# Tests used:
# [1] = tested on: UCB CD133+ cells (HSPC); assay: Ex vivo expansion of umbilical cord blood CD133+ cells, flow cytometry and cell counting; type: cell-based, human; conditions: for fold expansion of total nucleated cells (TNC) compared to cells grown in basal media / fold expansion of HSC (Lin-, CD38-, CD34+, CD45RA-, CD133+, CD90+, CD49f+) higher than basal media containing cytokines: 5 day culture; for fold expansion of total nucleated cells (TNC) compared to cells grown in basal media: HDAC inhibitor with cytokines, with or without WR1065 (100 μM), vs basal media containing cytokines; for fold expansion of HSC compared to cells grown in basal media: expansion protocol as defined above, HDAC inhibitor with or without WR1065; for fold expansion of HSC (Lin-, CD38-, CD34+, CD45RA-, CD133+, CD90+, CD49f+) higher than basal media containing cytokines: scriptaid 1 μM, WR1065 100 μM, FIG. 3
# From the text: Human UCB units were collected with written informed pre-consent and ethical approval from Oxford and Berkshire National Research Ethical Committees and studies conducted with approval of the NHSBT research committee. UCB mononuclear cells (MNC) were isolated by density gradient centrifugation on lymphocyte separation medium 1077 (PAA Laboratories, Pasching, Austria; density<1.077 g/ml). CD133+ cells were isolated from the MNC with immunomagnetic beads (Miltenyi Biotec, Germany). After isolation, the cells were cryopreserved in 10% DMSO in FCS (fetal calf serum) and stored at −150° C. in aliquots of 1×10^5 cells/vial. Cells were analysed for the purity of the isolation with flow cytometry on a BD LSR II (BD Biosciences, CA) using CD34-APC, CD133-PE and the appropriate isotype controls (all Miltenyi Biotec). Bone marrow derived CD133+ cells were obtained commercially from Lonza and peripheral blood CD133+ cells were isolated using immunomagnetic beads as above from total peripheral blood mononuclear cells obtained commercially from Lonza Biologics.
# Vials from 2 or 3 donors were thawed and pooled in StemSpan ACF media (Stem Cell Technologies) containing 100 ng/mL SCF, 100 ng/mL FLT3LG and 20 ng/mL TPO (all from Miltenyi Biotec). After counting, cells were plated in 96 well round bottom suspension plates at 20,000 cells/well in the above media. Cells were allowed to recover overnight in these conditions in a 37° C. humidified incubator with 5% CO2.
# The next day cells were harvested from the plates counted, and seeded into 24 well Nanex plates (Compass Biomedical) or standard tissue culture treated plates at 2500 cells/well in 1 mL basal media (StemSpan ACF with 100 ng/mL SCF, 100 ng/mL FLT3LG and 20 ng/mL TPO) containing an HDAC inhibitor (for most experiments scriptaid was used at a concentration of 1 μM). An aliquot of cells was used for CFU analysis and another for flow cytometry analysis.
# After 3 days in culture the media was either replaced or supplemented with fresh media with the cytokines (SCF, TPO and FLT3LG) and the HDAC inhibitors (scriptaid 1 μM). Sixteen to twenty hours prior to harvest WR1065 was added at a concentration of 100 μM. After total of 5 days in expansion, cells are harvested, counted and analysed by flow cytometry.
# Cells were harvested, washed and stained in 3% FBS in PBS using a panel of pre-conjugated antibodies. Cells were incubated with antibodies on ice for 30 min, then washed twice in 3% FBS in PBS and resuspended in 250 uL of above buffer before being analysed using a BD Canto II flow cytometer. [Antibody panel was as follows: 5 Lin custom cocktail (CD235a, CD4, CD10, CD11b and CD19) APC-Vio770, CD38-PE-Vio770, CD34-PerCP-Vio700, CD133-PE, CD45RA-VioBlue, CD49f-FITC, CD90-APC (all from Miltenyi Biotec).]
# Cell number was measured using flow cytometry with the aid of counting beads (CountBright beads Life Technologies).
# [2] = tested on: bone marrow derived CD34+ cells; conditions: pre-treatment of cells in vitro; cited from earlier work
# [3] = UCB cells from three separate donors and a pooled sample, FIG. 13
Compound,fold expansion of total nucleated cells (TNC) compared to cells grown in basal media [1],fold expansion of HSC compared to cells grown in basal media [1],other results
Cc1cc(C)cc(C(=O)NOCCCCCC(=O)NO)c1 [LMK235],slightly lower,significantly increased,
sodium phenylbutyrate,increase,increased,
NCCCNCCS [WR1065],,,"enhancement of formation of CFU-GEMM and BFU-E colonies [2]: ≤ 38 fold; fold expansion of HSC (Lin-, CD38-, CD34+, CD45RA-, CD133+, CD90+, CD49f+) higher than basal media containing cytokines [1]: around 3 fold"
CN1CCc2c(c3ccccc3n2Cc2ccc(C(=O)NO)cc2)C1 [Tubastatin A],similar,significantly increased,
Cn1cc(CNCC2CCN(c3ncc(C(=O)NO)cn3)CC2)c2ccccc21 [quisinostat],slightly lower,significantly increased,
Nc1cc(F)ccc1NC(=O)/C=C/c1cnn(C/C=C/c2ccccc2)c1 [RGFP966],increase,similar,
O=C(CCCCCN1C(=O)c2cccc3cccc(c23)C1=O)NO [scriptaid],slightly reduced,,"fold expansion of HSC (Lin-, CD38-, CD34+, CD45RA-, CD133+, CD90+, CD49f+) higher than basal media containing cytokines [1]: approximately 10 fold; fold expansion of HSC compared to cells cultured in basal media, different culture plates ([1]; Nanex scaffolds, TC treated Corning 24 well plates or suspension Greiner Bio 24 well plates, effect similar across all surfaces, FIG. 14): significantly increased; fold expansion of HSC higher compared to basal media, average [1, 3]: 30 fold; fold expansion of HSC higher compared to basal media, range [1, 3]: 10-55 fold; proportion of CD133+/CD34+ cells compared to cells grown on cytokines alone ([1]; after 5 days in culture): increase"
